Tested on: LCC6MDR xenograft
Assay: In vivo efficacy in reversing PTX resistance in LCC6MDR tumor xenograft model
Settings: for Doubling time: q2d x 14; for reduction in tumor volume compared to PTX alone / reduction in tumor weight compared to PTX alone: day 30
Protocol: (A) In vivo toxicity study of EC31 alone and of its combination with PTX was conducted. BALB/c mice were randomized into five groups with five mice in each group. Body weight of BALB/c mice during treatments was measured every two days. The treatment groups included (1) solvent control (5% NMP + 5% Cremophor EL + 90% PBS to dissolve EC31 and 5% Ethanol + 5% Cremophor EL + 90% PBS to dissolve PTX), (2) PTX (12 mg/kg i.v.), (3) EC31 (30 mg/kg i.p.), (4) EC31 (30 mg/kg i.p.) + PTX (12 mg/kg i.v.), or (5) EC31 (60 mg/kg i.p.) + PTX (12 mg/kg i.v.). The administration was performed every other day 12 times (q2d x 12). The loss of body weight or appetite and treatment-related mortality were monitored and defined as toxicity. (B) BALB/c nude mice were subcutaneously xenografted with LCC6MDR. When the tumor reached 150–300 mm^3, the mice were randomized and administered once with (1) EC31 alone, (2) PTX alone, or (3) EC31 + PTX. […] The tumors were taken out, and their weights were measured. Intratumor concentration of EC31 or PTX was measured using UPLC-MS/MS, and the actual concentration of PTX or EC31 was normalized to the tumor weight. […] (C) BALB/c nude mice were subcutaneously xenografted with LCC6MDR. The treatment groups included (1) solvent, (2) PTX (12 mg/kg i.v.) alone, (3) cotreatment with EC31 (30 mg/kg i.p.) being injected 1 h prior to PTX (12 mg/kg i.v.) and with EC31 (30 mg/kg i.p.) then being given in a second injection 5 h post-PTX injection, and (4) cotreatment with EC31 (60 mg/kg i.p.) being injected 1 h prior to PTX injection (12 mg/kg i.v.). Tumor volume and body weight were monitored throughout the treatment period. There were 8 mice in each treatment group. Treatments were given as indicated by the arrows. […] At the end of LCC6MDR xenograft efficacy study (day 30), all tumors were dissected. The tumor volume, tumor weight, and doubling time were measured. The number of animal deaths was recorded during the treatment period. Statistical analysis on tumor volumes of different treatment groups was done by performing two-way ANOVA with Dunnett’s multiple comparison test after treatment period. * represents p < 0.05, ** represents p < 0.01, and *** represents p < 0.001. […] No measure is printed with it.
Here, we tested whether EC31 could reverse P-gp-mediated PTX resistance in the LCC6MDR xenograft model (Figure 5C). The treatment was given every other day 14 times (q2d x 14) from day 0 to day 26.
The LCC6MDR tumor xenograft model was studied as it was previously. About 1 × 10^6 cells of LCC6MDR cells were inoculated subcutaneously (s.c.) into the rear flank of a female BALB/c nude mouse (4–6 weeks old). When a tumor of 200–250 mm^3 was formed, it was removed and cut into cubes of 1 mm^3 and was xenografted s.c. into the rear flank of another female BALB/c nude mouse. Treatments started when the tumor reached 100 mm^3. […] Tumor growth was measured with an electronic caliper on the injection day, and the tumor volume was calculated as reported previously.

[1] = group 3: EC31 30 mg/kg + PTX + EC31 30 mg/kg

## COc1cc(OC)c2c(c1)O[C@H](c1ccc(OC)c(OC)c1)[C@H](OC(=O)c1ccc(F)c(NC(=O)c3cc(OC)c(OC)c(OC)c3)c1)C2 [EC31]
EC31 30 mg/kg i.p. (−1 h) + PTX 12 mg/kg i.v. + EC31 30 mg/kg i.p. (+5 h)
  Doubling time: 15.0 days
EC31 60 mg/kg i.p. (−1 h) + PTX 12 mg/kg i.v.
  Doubling time: 12.4 days
[1]
  reduction in tumor volume compared to PTX alone: 1.6 fold
  reduction in tumor weight compared to PTX alone: 1.5 fold
Group 4: EC31 60 mg/kg + PTX
  reduction in tumor volume compared to PTX alone: 1.4 fold
  reduction in tumor weight compared to PTX alone: 1.4 fold

— publication PMC10002220, “In Vivo Reversal of P-Glycoprotein-Mediated Drug Resistance in a Breast Cancer Xenograft and in Leukemia Models Using a Novel, Potent, and Nontoxic Epicatechin EC31” (International Journal of Molecular Sciences, 2023)
